From PMC7587356, “High-Throughput Screening for Inhibitors of the SARS-CoV-2 Protease Using a FRET-Biosensor” (Molecules, 2020)
Counter-ions that a name gives are not always drawn. Like-named read-outs stand apart in the source and are kept apart here.

Molecular target: SARS-CoV-2 3CLpro (Severe acute respiratory syndrome coronavirus 2, UniProt P0DTD1)
Assay: biochemical
Type: biochemical
Design: Replicate_1 / Replicate_2 / mean / mean (LOPAC_screen_w_protease): unit not given here
Settings: for inhibition at 5 µM: 4 h
[1] = sheet LOPAC_screen_w_protease, LOPAC1280 at 5 µM, mean of two replicates, read-out: mean
[2] = sheet LOPAC_screen_w_protease, LOPAC1280 at 5 µM, replicate 1, read-out: Replicate_1
[3] = sheet LOPAC_screen_w_protease, LOPAC1280 at 5 µM, replicate 2, read-out: Replicate_2
[4] = LOPAC1280 primary screen with protease, 5 µM compound, mean of two replicates
[5] = LOPAC1280 primary screen with protease, 5 µM compound, replicate 1
[6] = LOPAC1280 primary screen with protease, 5 µM compound, replicate 2
[7] = sheet LOPAC_screen_w_protease, LOPAC1280 primary screen at 5 µM, with protease, mean of the two replicates, read-out: mean
[8] = sheet LOPAC_screen_w_protease, LOPAC1280 primary screen at 5 µM, with protease, replicate 1, read-out: Replicate_1
[9] = sheet LOPAC_screen_w_protease, LOPAC1280 primary screen at 5 µM, with protease, replicate 2, read-out: Replicate_2
[10] = sheet LOPAC_screen_w_protease, primary screen at 5 µM, mean of two replicates, read-out: mean (LOPAC screen with protease)
[11] = sheet LOPAC_screen_w_protease, primary screen at 5 µM, replicate 1, read-out: Replicate_1 (LOPAC screen with protease)
[12] = sheet LOPAC_screen_w_protease, primary screen at 5 µM, replicate 2, read-out: Replicate_2 (LOPAC screen with protease)
[13] = sheet LOPAC_screen_w_protease, LOPAC1280 at 5 µM, mean of two replicates
[14] = sheet LOPAC_screen_w_protease, LOPAC1280 at 5 µM, replicate 1
[15] = sheet LOPAC_screen_w_protease, LOPAC1280 at 5 µM, replicate 2
[16] = sheet LOPAC_screen_w_protease, primary screen of LOPAC1280 at 5 µM with protease, mean of the two replicates
[17] = sheet LOPAC_screen_w_protease, primary screen of LOPAC1280 at 5 µM with protease, replicate 1
[18] = sheet LOPAC_screen_w_protease, primary screen of LOPAC1280 at 5 µM with protease, replicate 2
[19] = LOPAC1280 primary screen with protease, 5 µM compound, replicate 1, read-out: Replicate_1 (LOPAC_screen_w_protease)
[20] = LOPAC1280 primary screen with protease, 5 µM compound, replicate 2, read-out: Replicate_2 (LOPAC_screen_w_protease)
[21] = sheet LOPAC_screen_w_protease, primary screen with protease, compound at 5 µM, mean of two replicates
[22] = sheet LOPAC_screen_w_protease, primary screen with protease, compound at 5 µM, replicate 1
[23] = sheet LOPAC_screen_w_protease, primary screen with protease, compound at 5 µM, replicate 2
[24] = sheet LOPAC_screen_w_protease, primary screen with protease, compound at 5 µM, mean of two replicates, read-out: mean
[25] = sheet LOPAC_screen_w_protease, primary screen with protease, compound at 5 µM, replicate 1, read-out: Replicate_1
[26] = sheet LOPAC_screen_w_protease, primary screen with protease, compound at 5 µM, replicate 2, read-out: Replicate_2

CN(C)CC[C@@H](c1ccc(Br)cc1)c1ccccn1 [(+)-Brompheniramine maleate]
inhibition at 5 µM [1]: 1.03% | inhibition at 5 µM [2]: 0.743% | inhibition at 5 µM [3]: 1.32%

COc1ccccc1OCC(O)CN1CCN(CC(=O)Nc2c(C)cccc2C)CC1 (stereo not drawn) [Ranolazine dihydrochloride]
inhibition at 5 µM [1]: 0.975% | inhibition at 5 µM [2]: 1.18% | inhibition at 5 µM [3]: 0.768%

C[C@@H](N)[C@H]1CC[C@H](C(=O)Nc2ccncc2)CC1.Cl.Cl [Y-27632 dihydrochloride]
mean (LOPAC_screen_w_protease) [4]: 1.325 | Replicate_1 (LOPAC_screen_w_protease) [5]: 2.12 | Replicate_2 (LOPAC_screen_w_protease) [6]: 0.5298

CC(=O)NCCc1c[nH]c2ccccc12 [N-Acetyltryptamine]
inhibition at 5 µM [7]: 0.808% | inhibition at 5 µM [8]: 1.07% | inhibition at 5 µM [9]: 0.543%

CN(C)CC/C=C1/c2ccccc2Sc2ccc(Cl)cc21 [Chlorprothixene hydrochloride]
inhibition at 5 µM [1]: 1.25% | inhibition at 5 µM [2]: 0.326% | inhibition at 5 µM [3]: 2.17%

O=C(O)Cc1c[nH]c2ccc(O)cc12 [5-Hydroxyindolacetic acid]
mean (sheet LOPAC_screen_w_protease, primary screen with protease, 5 µM, mean of two replicates): -0.3702 | Replicate_1 (sheet LOPAC_screen_w_protease, primary screen with protease, 5 µM, replicate 1): 1.641 | Replicate_2 (sheet LOPAC_screen_w_protease, primary screen with protease, 5 µM, replicate 2): -2.381

COc1ccc(C(=O)N2CCCC2=O)cc1 [Aniracetam]
inhibition at 5 µM [10]: 6.69% | inhibition at 5 µM [11]: 9.93% | inhibition at 5 µM [12]: 3.46%

O=C(N[C@@H](Cc1ccccc1)C(=O)CCl)OCc1ccccc1 [Z-L-Phe chloromethyl ketone]
inhibition at 5 µM [10]: 100% | inhibition at 5 µM [11]: 100% | inhibition at 5 µM [12]: 100%

CC1CCN=C(N)S1.Cl (racemic) [(±)-AMT hydrochloride]
Replicate_1: 3.477 | Replicate_2: 0.9466 | mean: 2.212

Cl.Cl.c1ccc(CCCN2CCN(CCOC(c3ccccc3)c3ccccc3)CC2)cc1 [GBR-12935 dihydrochloride]
mean [13]: 0.9925 | Replicate_1 [14]: 2.277 | Replicate_2 [15]: -0.2925

CC(C)(C)NCC(O)c1ccccc1Cl (stereo not drawn) [Tulobuterol hydrochloride]
inhibition at 5 µM [1]: 0.895% | inhibition at 5 µM [2]: 2.46% | inhibition at 5 µM [3]: -0.673%

O=c1[nH]c(=O)n([C@H]2C[C@H](O)[C@@H](CO)O2)cc1/C=C/Br [(E)-5-(2-Bromovinyl)-2'-deoxyuridine]
mean [16]: 3.159 | Replicate_1 [17]: 2.158 | Replicate_2 [18]: 4.161

O=C(O)c1cc(=O)c2ccccc2[nH]1 [Kynurenic acid]
inhibition at 5 µM [19]: 3.13% | inhibition at 5 µM [20]: 0.793% | mean (LOPAC_screen_w_protease) (LOPAC1280 primary screen with protease, 5 µM compound, mean of the two replicates): 1.961

CC(N)Cc1c[nH]c2ccc(OCc3cccs3)cc12 (stereo not drawn) [BW 723C86]
Replicate_1: 2.832 | Replicate_2: 3.4189 | mean: 3.125

CC(C)C1C2CCC(C2)C1N.Cl (stereo not drawn) [AGN 192403 hydrochloride]
mean [21]: 2.735 | Replicate_1 [22]: 2.811 | Replicate_2 [23]: 2.66

CC1=C(C(=O)O)N2C(=O)[C@@H](NC(=O)[C@H](N)C3=CCC=CC3)[C@H]2SC1 [Cephradine]
inhibition at 5 µM [24]: 3.13% | inhibition at 5 µM [25]: 2.84% | inhibition at 5 µM [26]: 3.42%

NS(=O)(=O)Cc1noc2ccccc12 [Zonisamide sodium]
inhibition at 5 µM [7]: 0.586% | inhibition at 5 µM [8]: -0.00469% | inhibition at 5 µM [9]: 1.18%

COc1ccccc1N1CCN(CCN(C(=O)c2ccc(F)cc2)c2ccccn2)CC1.Cl.Cl [p-MPPF dihydrochloride]
mean (LOPAC screen with protease) (sheet LOPAC_screen_w_protease, primary screen at 5 µM, mean of two replicates): 7.242 | Replicate_1 (LOPAC screen with protease) (sheet LOPAC_screen_w_protease, primary screen at 5 µM, replicate 1): 5.881 | Replicate_2 (LOPAC screen with protease) (sheet LOPAC_screen_w_protease, primary screen at 5 µM, replicate 2): 8.603

CC(C)[C@@]1(NC(=O)[C@@H]2C[C@@H]3c4cccc5[nH]cc(c45)C[C@H]3N(C)C2)O[C@@]2(O)[C@@H]3CCCN3C(=O)[C@H](Cc3ccccc3)N2C1=O.CS(=O)(=O)O [Dihydroergocristine methanesulfonate]
mean [21]: 2.761 | Replicate_1 [22]: 2.962 | Replicate_2 [23]: 2.561

COc1cc([C@@H]2c3cc4c(cc3[C@H](O)[C@H]3COC(=O)[C@H]23)OCO4)cc(OC)c1OC [Podophyllotoxin]
inhibition at 5 µM (read-out: Replicate_1): 3.42% | inhibition at 5 µM (read-out: Replicate_2): 4.17% | inhibition at 5 µM (read-out: mean): 3.8%

COC(=O)C1=CCCN(C)C1 [Arecoline hydrobromide]
inhibition at 5 µM [19]: 1.64% | inhibition at 5 µM [20]: 1.16% | mean (LOPAC_screen_w_protease) [4]: 1.398

O=C(O)CCCCCCC1C(=O)NC(=O)N1CCC(O)C1CCCCC1 (stereo not drawn) [BW 245C]
Replicate_1 (LOPAC_screen_w_protease): 2.361 | Replicate_2 (LOPAC_screen_w_protease): 0.3585 | mean (LOPAC_screen_w_protease): 1.3595

CCNC(=O)[C@H]1O[C@@H](n2cnc3c(N)nc(NCCc4ccc(CCC(=O)O)cc4)nc32)[C@H](O)[C@@H]1O.Cl [CGS-21680 hydrochloride]
mean [16]: 3.628 | Replicate_1 [17]: 4.89 | Replicate_2 [18]: 2.366

N/C(=N\C(=O)c1nc(Cl)c(N)nc1N)NCc1ccc(Cl)c(Cl)c1 [3',4'-Dichlorobenzamil]
mean [16]: 4.038 | Replicate_1 [17]: 5.158 | Replicate_2 [18]: 2.918

NCCCCN [Putrescine dihydrochloride]
mean (LOPAC_screen_w_protease): 2.055 | inhibition at 5 µM (read-out: Replicate_1 (LOPAC_screen_w_protease)): 4.37% | inhibition at 5 µM (read-out: Replicate_2 (LOPAC_screen_w_protease)): -0.258%

Cl.OCc1c[nH]cn1 [4-Imidazolemethanol hydrochloride]
mean [13]: 1.065 | Replicate_1 [14]: 2.558 | Replicate_2 [15]: -0.4285

CN1[C@@H]2CC[C@H]1C[C@@H](OC(c1ccccc1)c1ccccc1)C2 [Benztropine mesylate]
inhibition at 5 µM [24]: 3.08% | inhibition at 5 µM [25]: 0.913% | inhibition at 5 µM [26]: 5.26%

CC(C)(C=O)Cc1cc(C(C)(C)C)c(O)c(C(C)(C)C)c1 [CGP-13501]
mean (LOPAC_screen_w_protease) [4]: 1.552 | Replicate_1 (LOPAC_screen_w_protease) [5]: -0.1889 | Replicate_2 (LOPAC_screen_w_protease) [6]: 3.292

NCCCCCCCCCCN [1,10-Diaminodecane]
inhibition at 5 µM (sheet LOPAC_screen_w_protease, primary screen with protease, mean of two replicates, read-out: mean): 2.36% | inhibition at 5 µM (sheet LOPAC_screen_w_protease, primary screen with protease, replicate 1, read-out: Replicate_1): 3.01% | inhibition at 5 µM (sheet LOPAC_screen_w_protease, primary screen with protease, replicate 2, read-out: Replicate_2): 1.71%

Cl.c1ccc2nc(C3=NCCN3)ccc2c1 [BU224 hydrochloride]
mean (LOPAC_screen_w_protease) [4]: 1.603 | Replicate_1 (LOPAC_screen_w_protease) [5]: 1.353 | Replicate_2 (LOPAC_screen_w_protease) [6]: 1.8522

CCCC1O[C@@H]2C[C@H]3[C@@H]4CCC5=CC(=O)C=C[C@]5(C)[C@H]4[C@@H](O)C[C@]3(C)[C@]2(C(=O)CO)O1 (stereo partly drawn) [Budesonide]
inhibition at 5 µM [24]: 3.01% | inhibition at 5 µM [25]: 1.81% | inhibition at 5 µM [26]: 4.21%

Nc1c2c(nc3ccccc13)CCCC2O.O=C(O)/C=C\C(=O)O (stereo not drawn) [Hydroxytacrine maleate]
mean (sheet LOPAC_screen_w_protease, primary screen with protease, mean of two replicates): 2.348 | Replicate_1 (sheet LOPAC_screen_w_protease, primary screen with protease, replicate 1): 3.064 | Replicate_2 (sheet LOPAC_screen_w_protease, primary screen with protease, replicate 2): 1.632

Cc1ccc([N+](=O)[O-])cc1S(=O)(=O)N(C)C [BRL 50481]
mean (LOPAC_screen_w_protease) [4]: 1.647 | Replicate_1 (LOPAC_screen_w_protease) [5]: 1.025 | Replicate_2 (LOPAC_screen_w_protease) [6]: 2.268

NC(=O)c1ncn([C@@H]2O[C@H](CO)[C@@H](O)[C@H]2O)c1O [Mizoribine]
inhibition at 5 µM (sheet LOPAC_screen_w_protease, LOPAC1280 primary screen with protease, 5 µM compound, mean of the two replicates, read-out: mean): 4.8% | inhibition at 5 µM (sheet LOPAC_screen_w_protease, LOPAC1280 primary screen with protease, 5 µM compound, replicate 1, read-out: Replicate_1): 4.56% | inhibition at 5 µM (sheet LOPAC_screen_w_protease, LOPAC1280 primary screen with protease, 5 µM compound, replicate 2, read-out: Replicate_2): 5.05%

[N-]=[N+]=Nc1ccc(C(=O)CSC[C@H](NC(=O)CC[C@H](N)C(=O)O)C(=O)NCC(=O)O)cc1 [S-(p-Azidophenacyl)glutathione]
mean [21]: 2.647 | Replicate_1 [22]: 2.672 | Replicate_2 [23]: 2.621

Brc1c(NC2=NCCN2)ccc2nccnc12 [UK 14,304]
Replicate_1 (LOPAC_screen_w_protease): 1.98 | Replicate_2 (LOPAC_screen_w_protease): 2.1604 | mean (LOPAC_screen_w_protease): 2.07
